From ChEMBL document CHEMBL2016490, “Sinularioside, a triacetylated glycolipid from the Indonesian soft coral Sinularia sp., is an inhibitor of NO release” (2012)

Key:
Assay type in all cases: functional
Conditions in all cases: J774, 24 h
J774 [1] = assay: Antiinflammatory activity in mouse J774 cells assessed as inhibition of LPS-induced NO production at 30 uM after 24 hrs by Griess method
J774 [2] = assay: Antiinflammatory activity in mouse J774 cells assessed as inhibition of LPS-induced NO production at 100 uM after 24 hrs by Griess method
J774 [3] = assay: Antiinflammatory activity in mouse J774 cells assessed as inhibition of LPS-induced NO production at 10 uM after 24 hrs by Griess method

CCCCCCCCCCCCCCO[C@H]1OC[C@@H](O[C@H]2OC[C@@H](O)[C@@H](OC(C)=O)[C@@H]2OC(C)=O)[C@@H](O)[C@@H]1OC(C)=O [SINULARIOSIDE]
inhibition at 30 µM (J774 [1]): 58.2% | inhibition at 100 µM (J774 [2]): 92.3% | inhibition at 10 µM (J774 [3]): 6%
